Here are results for one sequence from publication PMC5295395, “Inhibition of PlexA1-mediated brain tumor growth and tumor-associated angiogenesis using a transmembrane domain targeting peptide” (Oncotarget, 2016).

Assay [1] relates to U118MG-Luc glioma tumors in nude mice. The experiment in a line: heterotopic (subcutaneous) U118MG-Luc xenograft, tumor growth. The format is in vivo, human cells in mouse. On the procedure: To address the biological consequences of MTP-PlexA1-mediated inhibition of PlexA1 we used the U118MG-Luc glioma cell line genetically engineered to express the luciferase reporter gene. […] Cells were then grafted subcutaneously and tumor growth was monitored every 5 days for a total period of 20 days. […] The quantitative analysis of the cumulated luminescent signal acquired all along the protocol confirmed the strong reduction of tumor development translating into a marked 75% reduction of the averaged luminescent signal at the end point (Figure 6C). […] However, responses were strong for 8 out of 10 mice with some responses close to 100%, all of them being at least Partial Response (PR) (Figure 6D). In order to clarify the mechanism by which MTP-PlexA1 is exerting tumor growth inhibition we collected tumors and analyzed them histologically.
(B) Representative photographs illustrating the kinetic of tumor growth over 20 days in the two experimental groups. (C) Cumulated growth curves of the tumors (UA: Arbitrary Unit). (D) Waterfall plot of best response representing the percent change in tumor volume of individual treated animals (grey bars, n = 10) compared to the average tumor volume increased determined in the control group (dark bars, n = 10). (E) Proximity ligation assay on tumor slices showing that MTP-PlexA1 (10^−7 M) decreases the number of PlexA1-NRP1 interactions in U118MG cells. (F) Representative microphotographs and related quantification of PH3 positive cells in tumor slices (G) Representative microphotographs and related quantification of CD31 positive regions in tumor slices (% CD31 per μm² of tumors).
Experiments were performed according to the Guide for Care and Use of Laboratory Animals (E67-6-482-21) and the European Directive with approval of the regional ethical committee (Reference AL/55/62/02/13). Heterotopic grafts were produced by injecting […] in the flank of pathogen-free NMRI nude mice (Janvier, Le Genest Saint Isle, France). Intraperitoneal administration of vehicle (LDS 72 μM) or MTP-PlexA1 treatment (10–7 M) were done every days during 20 days when the tumors reached a minimal volume of 100 mm3. For the experiment conducted with cancer stem cell line NCH644mCherry, we performed bilateral grafting of 10^6 cells on each flank of 20 nude mice without treatment or pre-incubated for 1 hour with MTP-PlexA1 at 10–7 M. After 5 days, the fluorescence emission of developing tumors was recorded using the NightOwl system (Berthold) using appropriate excitation and emission filters (580 nm/620 nm respectively).
(In general: Xenograft models place foreign cells or tissue in a host animal.)

The test system of a further assay is HUVEC cells. In words: live-monitoring trans-well migration assay, HUVEC (X-Celligence). The format is cell-based, human. The settings on record: p = 0.0002. The source says: We observed PlexA1 positive blood vessels in the tissue array of GBM samples (Figure 5A). […] To address this possibility we first used a transgenic zebra-fish model tg(kdrl:eGFP) highlighting the endothelial cells. This allowed us to assess the angiogenic activities in vivo by analyzing formation of intersegmental vessels (ISVs) after morpholino-based knockdown of the target.
Figure 5 MTP-PlexA1 inhibits developmental and tumor-specific PlexA1 pro-angiogenic role (A) Microphotographs illustrating the expression of PlexA1 in vascular-like structures in human glioma tissues. (Scale bar: 40 μm). (B) Morpholino-based PlexA1 knockdown in Zebrafish tg(kdrl:eGFP) line. Representative images of control, Plexin-A1 mismatch and Pexin-A1 knockdown embryos (plxna1MO) are shown 28 hours post fertilization (28hpf). […] (E) Live-monitoring of VEGF-induced HUVEC cell migration assay using the XCelligence system (transwell assay). (F) Microphotographs illustrating the expression of PlexA1 in blood vessels of the chick chorioallontoic membrane (upper left picture). Microphotographs (middle and lower left pictures) and camera lucida drawing (middle and lower right pictures) showing representative fields of observation after 24 h incubation with VEGF (100 ng/ml, +vehicle) or VEGF + MTP-PlexA1 (10^−7 M). The number of VEGF-induced new blood vessels is shown in the graph.

Where [2] appears, read: subcutaneous U118MG-Luc, every day, 1 μg/kg, n = 10.

With “TLPAIVGIGGGGGLLLLVIVAVLIAYKRK [MTP-PlexA1, synthetic transmembrane peptide mimicking the TMD of PlexA1]”, in assay [1] (setting [2]), the “mice not responding to treatment (waterfall best response)” value was 2 out of 10 and the “mice with strong response, at least Partial Response (PR)” value is 8 out of 10. Besides, the “reduction of averaged luminescent signal at the end point” value in assay [1] (subcutaneous U118MG-Luc, i.p. every day, 1 μg/kg, 20 days) is given as 75%. Besides, the “best response, some animals” value in assay [1] (waterfall graph, percent change in tumor volume, individual animals) is listed as ~100%. Moreover, the “change of VEGFA-induced HUVEC cell migration” value in the assay with HUVEC cells was −63%.
